Data set [1] has as its system Cyperus iria. The data set can be described thus: Preemergence weed control under flooded paddy conditions, CYPIR (Rice Flatsedge). As to conditions: preemergence weeds, flooded paddy, herbicidal effect rating 0-9, three to four weeks after treatment. The format is in vivo.
Data set [2] has as its system Monochoria vaginalis, Presl. The data set can be described thus: Preemergence weed control under flooded paddy conditions, MOOVA (Monochoria). The format is in vivo. To be noted: preemergence weeds, flooded paddy, herbicidal effect rating 0-9, three to four weeks after treatment.
Data set [3] concerns Cyperus serotinus, Rottb. Nature of the data set: Preemergence weed control under flooded paddy conditions, CYPSE (Flatsedge). To be noted: preemergence weeds, herbicidal effect rating 0-9, three to four weeks after treatment. The format is in vivo.
The test system of data set [4] is Echinochloa oryzoides (Ard.) Fritsch. Nature of the data set: Preemergence weed control under flooded paddy conditions, ECHORC (Watergrass (Calif.)). To be noted: preemergence weeds, flooded paddy, herbicidal effect rating 0-9, three to four weeks after treatment. The format is in vivo.
For data set [5], the system named is Sagittaria pygmaea, L. The data set can be described thus: Preemergence weed control under flooded paddy conditions, SAGPY (Arrowhead (Pygmaea)). To be noted: preemergence weeds, flooded paddy, herbicidal effect rating 0-9, three to four weeks after treatment. Format: in vivo.
The test system of data set [6] is Oryza sativa, (L.) Tebonnet. The data set can be described thus: Rice tolerance to post-transplant applications under flooded paddy conditions (Example 187), ORYSAT (Rice, Tebonnet). As to conditions: herbicidal effect rating 0-9, three to four weeks after treatment.

For `C#CCOC(=O)COc1cc2c(cc1-c1nsc3ccc(-n4c(=O)cc(C(F)(F)F)n(C)c4=O)cc13)CCC2` [Example 436, Acetic acid, {{6-{5-[3,6-dihydro-3-methyl-2,6-dioxo-4-(trifluoromethyl)-1(2H)-pyrimidinyl]-1,2-benzisothiazol-3-yl}-5-indanyl}oxy}-, 2-propynyl ester], the CYPIR was found to be 0.0 in data set [1] (0.0320 kg/ha), 2.0 in data set [1] (0.0620 kg/ha), 7.0 in data set [1] (0.1250 kg/ha) and 7.0 in data set [1] (0.2500 kg/ha). Further, the MOOVA in data set [2] (0.0320 kg/ha), in data set [2] (0.0620 kg/ha), in data set [2] (0.1250 kg/ha) and in data set [2] (0.2500 kg/ha) was 9.0 throughout. The CYPSE in data set [3] (0.0320 kg/ha) was 4.0; in data set [3] (0.0620 kg/ha) it was 6.0; in data set [3] (0.2500 kg/ha) it was 6.0. Further, the ECHORC in data set [4] (0.0320 kg/ha) is given as 6.0; in data set [4] (0.0620 kg/ha) it was 9.0; in data set [4] (0.1250 kg/ha), 9.0; in data set [4] (0.2500 kg/ha) it was 9.0. In addition, the SAGPY was determined as 0.0 in data set [5] (0.0320 kg/ha), 0.0 in data set [5] (0.0620 kg/ha), 2.0 in data set [5] (0.1250 kg/ha) and 3.0 in data set [5] (0.2500 kg/ha). In addition, the ORYSAT in data set [6] (0.0320 kg/ha) was 3.0; in data set [6] (0.0620 kg/ha) it was 5.0; in data set [6] (0.1250 kg/ha) it was 7.0; in data set [6] (0.2500 kg/ha) it was 6.0.
For `Cc1ccc(OCC(=O)N(C)S(C)(=O)=O)c(-c2nsc3ccc(-n4c(=O)cc(C(F)(F)F)n(C)c4=O)cc23)c1` [Example 437, Acetamide, 2-{{2-{5-[3,6-dihydro-3-methyl-2,6-dioxo-4-(trifluoromethyl)-1(2H)-pyrimidinyl]-1,2-benzisothiazol-3-yl}-p-tolyl}oxy}-N-methyl-N-(methylsulfonyl)-], the CYPIR in data set [1] (0.0320 kg/ha) was 0.0; in data set [1] (0.0620 kg/ha) it was 0.0; in data set [1] (0.1250 kg/ha), 4.0; in data set [1] (0.2500 kg/ha), 6.0. Moreover, the MOOVA in data set [2] (0.0320 kg/ha), in data set [2] (0.0620 kg/ha), in data set [2] (0.1250 kg/ha) and in data set [2] (0.2500 kg/ha) was 9.0 throughout. The CYPSE turned out to be 0.0 in data set [3] (0.0320 kg/ha), 2.0 in data set [3] (0.0620 kg/ha), 3.0 in data set [3] (0.1250 kg/ha) and 7.0 in data set [3] (0.2500 kg/ha). In addition, the ECHORC came to 5.0 in data set [4] (0.0320 kg/ha), 7.0 in data set [4] (0.0620 kg/ha), 7.0 in data set [4] (0.1250 kg/ha) and 8.0 in data set [4] (0.2500 kg/ha). Also, the SAGPY is 0.0 in data set [5] (0.0320 kg/ha), 3.0 in data set [5] (0.0620 kg/ha), 4.0 in data set [5] (0.1250 kg/ha) and 7.0 in data set [5] (0.2500 kg/ha). In addition, the ORYSAT in data set [6] (0.0320 kg/ha) is given as 4.0; in data set [6] (0.0620 kg/ha), 5.0; in data set [6] (0.1250 kg/ha) it was 6.0; in data set [6] (0.2500 kg/ha), 7.0.
For the molecule `CN(C(=O)COc1ccccc1-c1nsc2ccc(-n3c(=O)cc(C(F)(F)F)n(C)c3=O)cc12)S(C)(=O)=O` [Example 438, Acetamide, 2-{o-{5-[3,6-dihydro-3-methyl-2,6-dioxo-4-(trifluoromethyl)-1(2H)-pyrimidinyl]-1,2-benzisothiazol-3-yl}phenoxy}-N-methyl-N-(methylsulfonyl)-], the CYPIR in data set [1] (0.0320 kg/ha) turned out to be 4.5; in data set [1] (0.0620 kg/ha), 6.5; in data set [1] (0.1250 kg/ha), 8.5; in data set [1] (0.2500 kg/ha), 9.0. For the same molecule, the MOOVA amounted to 8.0 in data set [2] (0.0320 kg/ha), 8.5 in data set [2] (0.0620 kg/ha), 9.0 in data set [2] (0.1250 kg/ha) and 9.0 in data set [2] (0.2500 kg/ha). The CYPSE amounted to 4.5 in data set [3] (0.0320 kg/ha), 9.0 in data set [3] (0.0620 kg/ha), 7.0 in data set [3] (0.1250 kg/ha) and 9.0 in data set [3] (0.2500 kg/ha). Moreover, the ECHORC is 7.0 in data set [4] (0.0320 kg/ha), 8.0 in data set [4] (0.0620 kg/ha), 9.0 in data set [4] (0.1250 kg/ha) and 9.0 in data set [4] (0.2500 kg/ha). Besides, the SAGPY in data set [5] (0.0320 kg/ha) stood at 2.0; in data set [5] (0.0620 kg/ha) it was 3.5; in data set [5] (0.1250 kg/ha), 8.5; in data set [5] (0.2500 kg/ha), 9.0. Also, the ORYSAT in data set [6] (0.0320 kg/ha) worked out at 4.0; in data set [6] (0.0620 kg/ha), 5.0; in data set [6] (0.1250 kg/ha), 7.0; in data set [6] (0.2500 kg/ha) it was 8.0.
`Cn1c(C(F)(F)F)cc(=O)n(-c2ccc3snc(C(=O)Nc4nc(C(F)(F)F)c(Cl)s4)c3c2)c1=O` [Example 439, 1,2-Benzisothiazole-3-carboxamide, N-[5-chloro-4-(trifluoromethyl)thiazol-2-yl]-5-[3,6-dihydro-3-methyl-2,6-dioxo-4-(trifluoromethyl)-1(2H)-pyrimidinyl]-]: the CYPIR in data set [1] (0.0320 kg/ha) is given as 1.0; in data set [1] (0.0620 kg/ha) it was 3.0; in data set [1] (0.1250 kg/ha), 4.0; in data set [1] (0.2500 kg/ha), 5.0. Further, the MOOVA in data set [2] (0.0320 kg/ha) came out at 5.0; in data set [2] (0.0620 kg/ha) it was 6.0; in data set [2] (0.1250 kg/ha), 7.0; in data set [2] (0.2500 kg/ha) it was 7.0. Moreover, the CYPSE in data set [3] (0.0320 kg/ha), in data set [3] (0.0620 kg/ha), in data set [3] (0.1250 kg/ha) and in data set [3] (0.2500 kg/ha) was 0.0 in each case. The ECHORC came out at 2.0 in data set [4] (0.0320 kg/ha), 3.0 in data set [4] (0.0620 kg/ha), 6.0 in data set [4] (0.1250 kg/ha) and 6.0 in data set [4] (0.2500 kg/ha). In addition, the SAGPY in data set [5] (0.0320 kg/ha) is 0.0; in data set [5] (0.0620 kg/ha), 0.0; in data set [5] (0.1250 kg/ha), 0.0; in data set [5] (0.2500 kg/ha), 3.0. For the same molecule, the ORYSAT in data set [6] (0.0320 kg/ha), in data set [6] (0.0620 kg/ha), in data set [6] (0.1250 kg/ha) and in data set [6] (0.2500 kg/ha) was 0.0 throughout.
Regarding `CCOCN(C(=O)c1nsc2ccc(-n3c(=O)cc(C(F)(F)F)n(C)c3=O)cc12)S(=O)(=O)Cc1ccccc1` [Example 440, 1,2-Benzisothiazole-3-carboxamide, N-(benzylsulfonyl)-5-[3,6-dihydro-3-methyl-2,6-dioxo-4-(trifluoromethyl)-1(2H)-pyrimidinyl]-N-(ethoxymethyl)-], the CYPIR was determined as 5.0 in data set [1] (0.0320 kg/ha), 9.0 in data set [1] (0.0620 kg/ha), 9.0 in data set [1] (0.1250 kg/ha) and 9.0 in data set [1] (0.2500 kg/ha). Besides, the MOOVA was 7.0 in data set [2] (0.0320 kg/ha), 9.0 in data set [2] (0.0620 kg/ha), 9.0 in data set [2] (0.1250 kg/ha) and 9.0 in data set [2] (0.2500 kg/ha). In addition, the CYPSE in data set [3] (0.0320 kg/ha) is listed as 6.0; in data set [3] (0.0620 kg/ha), 9.0; in data set [3] (0.1250 kg/ha), 9.0; in data set [3] (0.2500 kg/ha), 9.0. Also, the ECHORC in data set [4] (0.0320 kg/ha) was found to be 5.0; in data set [4] (0.0620 kg/ha) it was 7.0; in data set [4] (0.1250 kg/ha), 9.0; in data set [4] (0.2500 kg/ha) it was 9.0. Moreover, the SAGPY in data set [5] (0.0320 kg/ha) is 4.0; in data set [5] (0.0620 kg/ha), 6.0; in data set [5] (0.1250 kg/ha), 7.0; in data set [5] (0.2500 kg/ha), 9.0. For the same molecule, the ORYSAT in data set [6] (0.0320 kg/ha) turned out to be 3.0; in data set [6] (0.0620 kg/ha), 4.0; in data set [6] (0.1250 kg/ha), 4.0; in data set [6] (0.2500 kg/ha), 4.0.
As for `COC(=O)CN(C(=O)c1nsc2ccc(-n3c(=O)cc(C(F)(F)F)n(C)c3=O)cc12)S(=O)(=O)Cc1ccccc1` [Example 441, Glycine, N-(benzylsulfonyl)-N-{{5-[3,6-dihydro-3-methyl-2,6-dioxo-4-(trifluoromethyl)-1(2H)-pyrimidinyl]-1,2-benzisothiazol-3-yl}carbonyl}-, methyl ester], the CYPIR is listed as 4.0 in data set [1] (0.0320 kg/ha), 6.0 in data set [1] (0.0620 kg/ha), 9.0 in data set [1] (0.1250 kg/ha) and 9.0 in data set [1] (0.2500 kg/ha). Further, the MOOVA in data set [2] (0.0320 kg/ha), in data set [2] (0.0620 kg/ha), in data set [2] (0.1250 kg/ha) and in data set [2] (0.2500 kg/ha) was 9.0 in each case. Further, the CYPSE in data set [3] (0.0620 kg/ha) is reported as 0.0; in data set [3] (0.1250 kg/ha), 4.0; in data set [3] (0.2500 kg/ha), 7.0. For the same molecule, the ECHORC in data set [4] (0.0320 kg/ha) came out at 0.0; in data set [4] (0.0620 kg/ha), 0.0; in data set [4] (0.1250 kg/ha) it was 0.0; in data set [4] (0.2500 kg/ha), 3.0. Also, the SAGPY was found to be 0.0 in data set [5] (0.0320 kg/ha), 2.0 in data set [5] (0.0620 kg/ha), 3.0 in data set [5] (0.1250 kg/ha) and 6.0 in data set [5] (0.2500 kg/ha). For the same molecule, the ORYSAT is 0.0 in data set [6] (0.0320 kg/ha), 0.0 in data set [6] (0.0620 kg/ha), 2.0 in data set [6] (0.1250 kg/ha) and 3.0 in data set [6] (0.2500 kg/ha).

The values are drawn from EP0908457B1, “3-(1,2-benzisothiazol- and isoxazol-5-Y1)-2,4(1H,3H)-pyrimidinedione or thione and 3-(1,2-benzisothiazol- and isoxazol-5-y1)-4(3H)-pyrimidinone or thione herbicidal agents” (BASF AKTIENGESELLSCHAFT, priority 1997, dated 1999).
